Results as given in ChEMBL document CHEMBL1127883, “Increased antiviral activity of HIV protease inhibitors of the difluorostatone type bearing (R)-valinol derivatives as novel c-termini” (Bioorg Med Chem Lett, 1994).

Tests used:
[1] = target: Human immunodeficiency virus type 1 protease (Human immunodeficiency virus 1) (UniProt Q72874); experiment: Concentration that inhibits cellular growth of MT-4 cells acutely infected with HIV-1 RFstrain by 50%; type: functional, cell-based; details: MT4
[2] = Cytotoxic activity was determined against HIV-1 infected MT-4 cells.; type: functional, cell-based; details: MT4
[3] = target: T1, Human immunodeficiency virus type 1 protease (Human immunodeficiency virus 1, UniProt Q72874); experiment: Inhibitory activity was determined against HIV-1 protease.
[4] = system: Human immunodeficiency virus 1; experiment: Antiviral activity against HIV-1CCL in PBMC 2 cell line; Out of 14 days; type: functional; details: Human immunodeficiency virus 1, PBMC, 336 h; read-out: ED50 (the source's name)
CCRF-CEM = experiment: Antiviral activity against HIV-1 HIB in CEM cell line; type: functional; details: Homo sapiens, read-out: ED50 (the source's name)
H938 cell line = experiment: Antiviral activity against HIV-1CCl protease in H938 cell line; type: functional; details: Homo sapiens, read-out: ED50 (the source's name)
JM1 [5] = experiment: Antiviral activity against HIV-1 QB8F in JM cell line; type: functional; details: Homo sapiens, read-out: ED50 (the source's name)
JM1 [6] = experiment: Cytotoxic activity against HIV-1QB8F in JM cell line; type: functional; details: Homo sapiens, read-out: CD50 (the source's name)
H9 [7] = experiment: Antiviral activity against HIV-1HIB in H9 cell line; type: functional; details: Homo sapiens, read-out: ED50 (the source's name)
[8] = system: Human immunodeficiency virus 1; experiment: Antiviral activity against HIV-1CC in PBMC cell line; Out of 7 days; type: functional; details: Human immunodeficiency virus 1, PBMC, 168 h; read-out: ED50 (the source's name)
C8166 [9] = experiment: Antiviral activity against SIV-mac251 in C8166 cell line; type: functional; details: Homo sapiens, read-out: ED50 (the source's name)
[10] = target: T1, Human immunodeficiency virus type 1 protease; experiment: Inhibitory activity against HIV-1 protease
MT4 [11] = experiment: Cytotoxic activity against HIV-1 in MT-4 cell line; type: functional; details: Homo sapiens, read-out: CD50 (the source's name)
[12] = system: Human immunodeficiency virus 1; experiment: Antiviral activity against HIV-1CCl in PBMC cell line; Out of 21 days; type: functional; details: Human immunodeficiency virus 1, PBMC, 504 h; read-out: ED50 (the source's name)
H9 [13] = experiment: Antiviral activity against HIV-1MN in H9 cell line; type: functional; details: Homo sapiens, read-out: ED50 (the source's name)
H9 [14] = experiment: Antiviral activity against HIV-1U455 in H9 cell line; type: functional; details: Homo sapiens, read-out: ED50 (the source's name)
MT4 [15] = experiment: Antiviral activity against HIV-1 RF in MT-4 cell line; type: functional; details: Homo sapiens, read-out: ED50 (the source's name)
C8166 [16] = experiment: Cytotoxic activity against HIV-1 RF in […] cell line; type: functional; details: Homo sapiens, read-out: CD50 (the source's name)
[17] = system: Human immunodeficiency virus 1; experiment: Antiviral activity against HIV-1 108/F in PBMC 3 cell line; type: functional; details: Human immunodeficiency virus 1, PBMC; read-out: ED50 (the source's name)
C8166 [18] = experiment: Antiviral activity against HIV-1 RF in […] cell line; type: functional; details: Homo sapiens, read-out: ED50 (the source's name)
C8166 [19] = experiment: Antiviral activity against HIV-2red in C8166 cell line; type: functional; details: Homo sapiens, read-out: ED50 (the source's name)

| Compound | ED50 [1] [nM] | CD50 [2] [µM] | IC50 [3] [nM] | also measured |
| --- | --- | --- | --- | --- |
| CC(C)[C@H](COCc1ccccc1)NC(=O)C(F)(F)C(=O)C(Cc1ccc(OCc2ccccc2)cc1)NC(=O)[C@H](NC(=O)OCc1ccccc1)C(C)C (stereo not given in full) | > 95000 | 95 | 60 |  |
| CC(C)[C@@H](COCc1ccccc1)NC(=O)C(F)(F)C(=O)C(Cc1ccc(OCc2ccccc2)cc1)NC(=O)[C@H](NC(=O)OCc1ccccc1)C(C)C (stereo not given in full) |  |  | 2000 |  |
| CC(C)C[C@H](COCc1ccccc1)NC(=O)C(F)(F)C(=O)C(Cc1ccc(OCc2ccccc2)cc1)NC(=O)[C@@H](NC(=O)OCc1ccccc1)C(C)C (stereo not given in full) | 200 | 15 | 1.8 |  |
| CC(C)[C@H](NC(=O)OCc1ccccc1)C(=O)NC(Cc1ccc(OCc2ccccc2)cc1)C(=O)C(F)(F)C(=O)N[C@H](COCc1ccccc1)C(C)C (stereo not given in full) | 350 | 35 | 40 |  |
| CC(C)[C@H](NC(=O)OCc1ccccc1)C(=O)NC(Cc1ccc(OCc2ccccc2)cc1)C(=O)C(F)(F)C(=O)N[C@@H](COCc1ccccc1)c1ccccc1 (stereo not given in full) | 90 | 23 | 1 |  |
| CC(C)[C@H](COCc1ccccc1)NC(=O)C(F)(F)[C@H](O)C(Cc1ccc(OCc2ccccc2)cc1)NC(=O)[C@@H](NC(=O)OCc1ccccc1)C(C)C (stereo not given in full) | > 100000 | > 100 | 5 |  |
| COCCOCO[C@H](NC(=O)C(F)(F)C(=O)C(Cc1ccc(OCc2ccccc2)cc1)NC(=O)[C@@H](NC(=O)OCc1ccccc1)C(C)C)C(C)C (stereo not given in full) | 15 | 3.4 | < 10 |  |
| CC(C)[C@H](NC(=O)OCc1ccccc1)C(=O)NC(Cc1ccc(OCc2ccccc2)cc1)C(=O)C(F)(F)C(=O)N[C@@H](C(=O)O)C(C)C (stereo not given in full) | 50000 | > 100 | 4 |  |
| CC(C)[C@H](NC(=O)OCc1ccccc1)C(=O)NC(Cc1ccc(OCc2ccccc2)cc1)C(=O)C(F)(F)C(=O)NCc1ccccc1 (stereo not given in full) | 300 | > 100 |  |  |
| CC(C)[C@H](CCc1ccccc1)NC(=O)C(F)(F)C(=O)C(Cc1ccc(OCc2ccccc2)cc1)NC(=O)[C@@H](NC(=O)OCc1ccccc1)C(C)C (stereo not given in full) | 240 | 35 | 13 |  |
| CC(C)[C@H](COCc1ccccc1)NC(=O)C(F)(F)[C@@H](O)C(Cc1ccc(OCc2ccccc2)cc1)NC(=O)[C@@H](NC(=O)OCc1ccccc1)C(C)C (stereo not given in full) | > 100000 | > 100 | 6.6 |  |
| CC(C)NC(=O)C(F)(F)C(=O)C(Cc1ccc(OCc2ccccc2)cc1)NC(=O)[C@@H](NC(=O)OCc1ccccc1)C(C)C (stereo not given in full) | 320 | 6 | 5 |  |
| CC(C)CNC(=O)C(F)(F)C(=O)C(Cc1ccc(OCc2ccccc2)cc1)NC(=O)[C@@H](NC(=O)OCc1ccccc1)C(C)C (stereo not given in full) | > 44000 | 44 | 5 |  |
| CC(C)C(C=O)NC(=O)C(F)(F)C(=O)C(Cc1ccc(OCc2ccccc2)cc1)NC(=O)[C@@H](NC(=O)OCc1ccccc1)C(C)C (stereo not given in full) | 18 | 3.2 | 4 |  |
| COCCOCCO[C@H](NC(=O)C(F)(F)C(=O)C(Cc1ccc(OCc2ccccc2)cc1)NC(=O)[C@@H](NC(=O)OCc1ccccc1)C(C)C)C(C)C (stereo not given in full) | 45 | 2.8 | < 15 |  |
| COC(=O)[C@H](NC(=O)C(F)(F)C(=O)C(Cc1ccc(OCc2ccccc2)cc1)NC(=O)[C@@H](NC(=O)OCc1ccccc1)C(C)C)C(C)C (stereo not given in full) | 22 | 2.6 | < 10 |  |
| CC(C)[C@H](COCc1ccccc1)NC(=O)C(F)(F)C(=O)C(Cc1ccc(OCc2ccccc2)cc1)NC(=O)[C@@H](NC(=O)OCc1ccccc1)C(C)C (stereo not given in full) | 27 | 100 |  | EC50 [4]: 38 nM; EC50 (CCRF-CEM): 30 nM; EC50 (H938 cell line): 49 nM; EC50 (JM1 [5]): 16 nM; CC50 (JM1 [6]): > 100000 nM; EC50 (H9 [7]): 9 nM; EC50 [8]: 80 nM; EC50 (C8166 [9]): 28 nM; Ki [10]: 8 nM; CC50 (MT4 [11]): 25000 nM; EC50 [12]: 70 nM; EC50 (H9 [13]): 12 nM; EC50 (H9 [14]): 35 nM; EC50 (MT4 [15]): 27 nM; CC50 (C8166 [16]): 25000 nM; EC50 [17]: 35 nM; EC50 (C8166 [18]): 9 nM; EC50 (C8166 [19]): 33 nM |
| CC(C)[C@H](NC(=O)OCc1ccccc1)C(=O)NC(Cc1ccc(OCc2ccccc2)cc1)C(=O)C(F)(F)C(=O)N[C@@H](C(=O)OC(C)(C)C)C(C)C (stereo not given in full) | 240 | 6 | 6 |  |
| Cc1cn([C@H]2C[C@H](N=[N+]=[N-])[C@@H](CO)O2)c(=O)[nH]c1=O | 60 | > 10 |  |  |
| CC(C)(C)NC(=O)[C@@H]1C[C@@H]2CCCC[C@@H]2CN1C[C@@H](O)[C@H](Cc1ccccc1)NC(=O)[C@H](CC(N)=O)NC(=O)c1ccc2ccccc2n1 | 6 | > 10 |  |  |
| CO[C@H](NC(=O)C(F)(F)C(=O)C(Cc1ccc(OCc2ccccc2)cc1)NC(=O)[C@@H](NC(=O)OCc1ccccc1)C(C)C)C(C)C (stereo not given in full) | < 10 | 8 | < 10 |  |
